Source: patent US20060089410A1, “Combination of chemotherapeutic drugs for increasing antitumor activity” (Titan Pharmaceuticals, Inc., priority 2002, published 2006)

Columns and labels:
[1] = tested on: H23 (NCI-H23) NSCLC cell line; assay: MTS growth inhibition assay, sequencing of Pivanex and docetaxel, H23; format: cell-based, human; conditions: after 24 hour exposure
Experimental: Human Non-Small Cell Lung Carcinoma Cell Lines, H522 and NCI-H23, were evaluated for growth inhibitory activity of Pivanex, alone and in combination with the standard chemotherapeutic agent, docetaxel. Cells were treated for three days with Pivanex followed by 24 hours of exposure to docetaxel or the cells were treated for 24 hours with docetaxel followed by three days of exposure to Pivanex. The cell growth inhibition was judged at the end of the 4-day experiments by a standard staining technique using MTS tetrazolium vital stain. […]
Exponentially growing cells were harvested with trypsin (0.05%)/EDTA (0.02%) and re-suspended in fresh medium containing 10% FBS. […] Absorbance was documented on a Dynex HD microplate reader at a wavelength of 490 nm. IC50 values were determined by using the Prism® GraphPad software from 3 different tests, each of which involved 4 replicates for each dose determination. The data are presented as percent growth inhibition, where 0% represents the mean value in wells to which only vehicle (0.1% DMSO) was added and was calculated as follows: % Growth Inhibition=(1−(ODtest/ODvehicle))×100 where ODtest is the optical density of the tested sample, OD vehicle is the optical density of the vehicle in which each respected drug is dissolved.

[2] = tested on: SK-MES-1 squamous lung cell carcinoma cell; assay: Crystal violet microtiter assay, Pivanex then cytotoxic drug, SK-MES-1; format: cell-based; conditions: for SK-MES-1 cancer cell viability (A^490 Absorbance): paclitaxel 0 μM
Experimental: (§1) T24 Bladder transitional carcinoma cells, Calu-6 anaplastic lung carcinoma cells, and SK-MES-1 squamous lung cell carcinoma cell cultures were purchased from the American Type Culture Collection (Manassas, Va.). All cell lines were cultured in RPMI-1640 with 10% fetal calf serum. For culture in microtiter dishes, cells were plated at a density of 10^4 cells/well and incubated at 37° C., 5% CO2 overnight.
(§2) After overnight incubation, drugs were added to wells in quadruplicate and incubated for 6 to 96 hours in the presence or absence of the oxyalkylene containing compound. […] the media was removed, fresh media were added with cytotoxic drug, and the cultures were incubated for another 6 hours.
(§3) The wells were then washed and medium without drug was added to each well. Microtiter plates were subsequently incubated for an additional 3 days before cell density was determined by a Crystal Violet Assay. Some cultures were alternatively fixed in methanol and stained with hematoxylin and eosin (H&E) stain for 5 minutes prior to microphotography.
(§4) PIVANEX (pivaloyloxymethyl butyrate) was obtained from Titan Pharmaceuticals Inc. (South San Francisco, Calif.) and was admixed with 0.05% Intralipid™ (Fresenius Kabi, Clayton, N.C.) prior to addition to culture media. The cytotoxic drugs gemcitabine (Gemzar; Eli Lilly and Co., Indianapolis, Ind.), cisplatin (Platinol, Bristol-Myers Squibb Co., Princeton, N.J.), paclitaxel (Taxol; Bristol-Myers Squibb Co., Princeton, N.J.), and docetaxel (Taxotere, Aventis Pharmaceuticals Products, Inc., Bridgewater, N.J.) were studied with PIVANEX.
(§5) Cells in microtiter wells were rinsed with PBS and fixed in two volumes of 100% cold methanol for 5 minutes. One volume of 0.5% crystal violet in 20% methanol was added and the attached cells stained for 10 minutes. The cells were then washed and crystal violet was eluted with 0.1 N sodium citrate buffer and read on an ELISA plate reader at 490 nm.

[3] = tested on: T24 bladder cancer cells; assay: Pretreatment followed by various chemotherapeutic agents, T24; format: cell-based, human
Experimental: Human T24 bladder and A549 lung cancer cells were exposed to increasing concentrations of pivaloyloxymethyl butyrate for 6 or 72 hours followed by exposure to various chemotherapeutic agents. […] At higher dosages the increase in cytotoxicity following the sequential regimen would show after a shorter induction period with pivaloyloxymethyl butyrate as discussed above.

[4] = tested on: c-myc; assay: Oncogene expression after exposure of tumor cells; format: cell-based; conditions: 72-hour exposure, 10-50 μM
Source text: (§6) The observed morphologic changes consistent with a more differentiated phenotype prompted investigation of oncogene expression following exposure to pivaloyloxymethyl butyrate.

[5] = tested on: ras; assay: Oncogene expression after exposure of tumor cells; format: cell-based; conditions: 72-hour exposure, 10-50 μM
Source text: as §6

[6] = tested on: c-Myc oncogene; assay: c-Myc oncogene expression by RT-PCR, Calu-6 cells; format: cell-based; conditions: for c-Myc oncogene expression: 96 hour exposure, n = 2
Experimental: as §1, §2
(§7) Tumor cell culture mRNA was isolated by standard methods, and RT-PCR was conducted to determine levels of c-Myc oncogene expression. The c-Myc primer pair used for RT-PCR cycling was:
(§8) The c-Myc primer pair was cycled by the following program: 95° C. for 3 min., then 30 cycles of (95° C. for 1 min., then 55° C. for 1 min., then 72° C. for 1 min.) followed by holding temperature at 72° C. for 7 min. before ramping temperature to 4° C. Samples were analyzed quantitatively by 1% agarose gel electrophoresis and gel densitometry.

[7] = tested on: c-Myc oncogene; assay: c-Myc oncogene expression, SK-MES-1 cells; format: cell-based; conditions: SK-MES-1, 96 hours in culture
Experimental: as §1, §2, §7, §8

[8] = tested on: Calu-6 anaplastic lung carcinoma cells; assay: Crystal violet microtiter assay, Pivanex then cytotoxic drug, Calu-6; format: cell-based
Experimental: as §1, §2, §3, §4, §5

For `CCCC(=O)OCOC(=O)C(C)(C)C` [Pivanex, pivaloyloxymethyl butyrate], the “cell growth with agent alone” value [1] was “steep increase in H23 cell growth”, the “SK-MES-1 cancer cell viability (A^490 Absorbance)” value ([2]; Pivanex 10 μM) was 0.743 and the “SK-MES-1 non-small cancer cell viability (A^490 Absorbance)” value (from here on “SK-MES-1 non-small cancer cell viability”) ([2]; Pivanex 25 μM alone) was 1.852. The “SK-MES-1 cancer cell viability (A^490 Absorbance)” value ([2]; Pivanex 50 μM) was 0.769, the “SK-MES-1 non-small cancer cell viability” value ([2]; Pivanex 100 μM alone) was 1.908 and the “SK-MES-1 non-small cancer cell viability” value ([2]; Pivanex 200 μM alone) was 1.952. The “enhancement of cytotoxicity of chemotherapeutic agents” value ([3]; T24, 6-hour pretreatment, lower doses) was “did not enhance cytotoxicity”, the “enhancement of cytotoxicity of chemotherapeutic agents” value ([3]; T24, 72-hour pretreatment) was “did enhance drug-induced cytotoxicity” and the c-myc expression [4] was “significant suppression”. The ras expression [5] was “significant suppression”, the “concentrations (as low as) that decreased the expression of c-Myc oncogene” value ([6]; Calu-6, 96 hours in culture) was 10 to 50 µM and the c-Myc oncogene expression ([6]; Pivanex 10 μM) was 893 PCR units. The c-Myc oncogene expression ([6]; Pivanex 25 μM) was 743 PCR units, the c-Myc oncogene expression ([6]; Pivanex 50 μM) was 711 PCR units and the c-Myc oncogene expression ([6]; Pivanex 100 μM) was 647 PCR units. For the same compound, the c-Myc oncogene expression ([6]; Pivanex 200 μM) was 460 PCR units, the “concentrations (as low as) that decreased the expression of c-Myc oncogene” value [7] was 10 to 50 µM and the “Calu-6 cancer cell viability (A^490 Absorbance)” value (shortened to “Calu-6 cancer cell viability”) ([8]; Pivanex 10 μM, cisplatin 0 μM) was 0.617. The “Calu-6 cancer cell viability” value ([8]; Pivanex 10 μM, docetaxel 0 nM) was 0.732, the “Calu-6 cancer cell viability” value ([8]; Pivanex 10 μM, gemcitabine 0 nM) was 0.617 and the “Calu-6 cancer cell viability” value ([8]; Pivanex 50 μM, cisplatin 0 μM) was 0.577. The “Calu-6 cancer cell viability” value ([8]; Pivanex 50 μM, docetaxel 0 nM) was 0.553, the “Calu-6 cancer cell viability” value ([8]; Pivanex 50 μM, gemcitabine 0 nM) was 0.577 and the “Calu-6 cancer cell viability” value ([8]; Pivanex 100 μM, cisplatin 0 μM) was 0.284. For the same compound, the “Calu-6 cancer cell viability” value ([8]; Pivanex 100 μM, gemcitabine 0 nM) was 0.284.
